# Key:
# Assay type in all cases: in vitro ADME
# CYP3A4 = CYP3A4 (Homo sapiens (Human), UniProt P08684); test: CYP3A4 fluorescent MBI test; settings: pre-reaction time 0 or 30 minutes; substrate 7-BFC; CYP3A4 expressed in Escherichia coli
# Description: The CYP3A4 fluorescent MBI test is a test of investigating enhancement of CYP3A4 inhibition of a compound by a metabolism reaction, and the test is performed using, as CYP3A4 enzyme expressed in Escherichia coli and employing, as an index, a reaction in which 7-benzyloxytrifluoromethylchmarin (BFC) is debenzylated by the CYP3A4 enzyme to produce a metabolite, 7-hydroxytrifluoromethylchmarin (HFC) emitting fluorescent light.
# The reaction conditions were as follows: substrate, 5.6 μmol/L 7-BFC; pre-reaction time, 0 or 30 minutes; reaction time, 15 minutes; reaction temperature, 25° C.
# An enzyme in a K-Pi buffer (pH 7.4) and a test drug solution as a pre-reaction solution were added to a 96-well plate at the composition of the pre-reaction, a part of it was transferred to another 96-well plate so that it was 1/10 diluted by a substrate in a K-Pi buffer, NADPH as a co-factor was added to initiate a reaction as an index (without preincubation) and, after a predetermined time of a reaction, acetonitrile: 0.5 mol/L Tris (trishydroxyaminomethane)=4:1 was added to stop the reaction. In addition, NADPH was added to a remaining preincubation solution to initiate a preincubation (with preincubation) and, after a predetermined time of a preincubation, a part was transferred to another plate so that it was 1/10 diluted with a substrate and a K-Pi buffer to initiate a reaction as an index, After a predetermined time of a reaction, acetonitrile: 0.5 mol/L Tris (trishydroxyaminomethane)=4:1 was added to stop the reaction. For the plate on which each index reaction had been performed, a fluorescent value of 7-HFC which is a metabolite was measured with a fluorescent plate reader. (Ex=420 nm, Em=535 nm).
# Addition of only DMSO which is a solvent dissolving a drug to a reaction system was adopted as a control (100%), remaining activity (%) was calculated at each concentration of a test drug added as the solution, and IC50 was calculated by reverse-presumption by a logistic model using a concentration and an inhibition rate. When a difference between IC50 values is 5 or more, this was defined as (+) and, when the difference is 3 μmol/L or less, this was defined as (−).
# CYP1A2 = CYP1A2 (Homo sapiens (Human), UniProt P05177); test: CYP inhibition test, 7-ethoxyresorufin O-deethylation; settings: pooled human hepatic microsome; 0.5 μmol/L ethoxyresorufin; given as 'five kinds'
# Description: (§1) Using commercially available pooled human hepatic microsome, and employing, as markers, 7-ethoxyresorufin O-deethylation (CYP1A2), tolbutamide methyl-hydroxylation (CYP2C9), mephenyloin 4′-hydroxylation (CYP2C19), dextromethorphan O-demethylation (CYP2D6), and terfenedine hydroxylation as typical substrate metabolism reactions of human main five ([…] enzyme forms (CYP1A2, 2C9, 2C19, 2D6, 3A4), an inhibitory degree of each metabolite production amount by a test compound was assessed.
# (§2) The reaction conditions were as follows: substrate, 0.5 μmol/L ethoxyresorufin (CYP1A2), 100 μmol/L tolbutamide (CYP2C9), 50 μmol/L S-mephenitoin (CYP2C19), 5 μmol/L dextromethorphan (CYP2D6), 1 μmol/L terfenedine (CYP3A4); reaction time, 15 minutes; reaction temperature, 37° C.; enzyme, pooled human hepatic microsome 0.2 mg protein/mL; test drug concentration, 1.0. 5.0, 10, 20 μmol/L (four points).
# (§3) Each five kinds of substrates, human hepatic microsome, or a test drug in 50 mmol/L Hepes buffer as a reaction solution was added to a 96-well plate at the composition as described above. NADPH, as a cofactor was added to initiate metabolism reactions as markers and, after the incubation at 37° C. for 15 minutes, a methanol/acetonitrile=1/1 (v/v) solution was added to stop the reaction. After the centrifugation at 3000 rpm for 15 minutes, resorufin (CYP1A2 metabolite) in the supernatant was quantified by a fluorescent multilabel counter and tributamide hydroxide (CYP2CP metabolite), mephenyloin 4′ hydroxide (CYP2C19 metabolite), […], and terfenadine alcohol (CYP3A4 metabolite) were quantified by LC/MS/MS.
# (§4) Addition of only DMSO being a solvent dissolving a drug to a reaction system was adopted as a control (100%), remaining activity (%) was calculated at each concentration of a test drug added as the solution and IC50 was calculated by reverse presumption by a logistic model using a concentration and an inhibition rate.
# CYP2C19 = CYP2C19 (Homo sapiens (Human), UniProt P33261); test: CYP inhibition test, mephenyloin 4'-hydroxylation; settings: pooled human hepatic microsome; 50 μmol/L S-mephenitoin; given as 'five kinds'
# Description: as §1, §2, §3, §4
# Sequence of CYP2C19 (P33261 whole entry): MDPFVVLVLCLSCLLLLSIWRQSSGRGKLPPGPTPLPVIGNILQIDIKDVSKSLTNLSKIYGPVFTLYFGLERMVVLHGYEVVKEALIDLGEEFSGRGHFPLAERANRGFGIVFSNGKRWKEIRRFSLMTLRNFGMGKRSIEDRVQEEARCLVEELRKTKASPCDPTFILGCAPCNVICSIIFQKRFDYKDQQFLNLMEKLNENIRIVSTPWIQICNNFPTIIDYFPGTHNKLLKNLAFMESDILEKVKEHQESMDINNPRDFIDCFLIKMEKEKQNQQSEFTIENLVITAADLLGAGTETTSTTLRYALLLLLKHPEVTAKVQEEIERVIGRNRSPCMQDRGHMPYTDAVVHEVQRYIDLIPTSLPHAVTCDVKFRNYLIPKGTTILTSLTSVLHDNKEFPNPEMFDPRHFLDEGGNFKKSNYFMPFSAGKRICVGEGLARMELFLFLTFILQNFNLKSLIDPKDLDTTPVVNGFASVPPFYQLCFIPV
# Sequence of CYP1A2 (P05177 whole entry): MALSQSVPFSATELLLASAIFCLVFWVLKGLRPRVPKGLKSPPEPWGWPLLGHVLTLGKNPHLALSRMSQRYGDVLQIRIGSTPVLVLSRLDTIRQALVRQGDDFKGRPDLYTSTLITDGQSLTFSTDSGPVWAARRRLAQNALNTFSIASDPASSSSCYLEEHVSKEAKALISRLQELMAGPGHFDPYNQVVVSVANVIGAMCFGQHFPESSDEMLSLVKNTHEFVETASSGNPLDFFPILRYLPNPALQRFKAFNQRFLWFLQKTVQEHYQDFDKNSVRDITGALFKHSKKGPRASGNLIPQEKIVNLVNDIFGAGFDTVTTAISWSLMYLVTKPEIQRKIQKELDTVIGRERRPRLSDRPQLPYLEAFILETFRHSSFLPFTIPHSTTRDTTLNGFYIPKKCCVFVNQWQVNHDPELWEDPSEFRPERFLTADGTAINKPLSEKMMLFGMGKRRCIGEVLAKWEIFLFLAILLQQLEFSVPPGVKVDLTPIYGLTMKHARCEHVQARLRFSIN
# Sequence of CYP3A4 (P08684 whole entry): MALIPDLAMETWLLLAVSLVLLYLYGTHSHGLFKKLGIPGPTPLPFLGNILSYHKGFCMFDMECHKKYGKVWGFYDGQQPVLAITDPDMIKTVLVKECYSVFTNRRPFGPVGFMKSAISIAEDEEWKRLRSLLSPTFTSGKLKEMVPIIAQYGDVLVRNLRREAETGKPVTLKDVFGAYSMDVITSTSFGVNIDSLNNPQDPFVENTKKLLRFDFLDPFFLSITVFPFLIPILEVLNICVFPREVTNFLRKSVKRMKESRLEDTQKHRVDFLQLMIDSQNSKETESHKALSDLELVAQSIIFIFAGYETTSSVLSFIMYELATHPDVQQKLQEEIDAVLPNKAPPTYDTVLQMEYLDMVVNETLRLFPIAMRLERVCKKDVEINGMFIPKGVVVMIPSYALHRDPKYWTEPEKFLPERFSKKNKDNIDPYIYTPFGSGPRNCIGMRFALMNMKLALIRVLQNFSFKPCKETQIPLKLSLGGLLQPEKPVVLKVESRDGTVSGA
smiles,measurement,setting,value
CC(C)Oc1ccc(Nc2cc(=O)n(C[C@H](C)C(=O)O)c(=O)n2Cc2ccc(Cl)cc2)cc1Cl [I-100],IC50 difference,CYP3A4,< 3 µM
same,IC50,CYP1A2,> 20 µM
same,IC50,CYP2C19,> 20 µM

# Reference: US9212130B2, “Heterocyclic derivative and pharmaceutical composition comprising the same” (SHIONOGI & CO., LTD., priority 2010, dated 2015)
